Measured values: the supplement of paper PMC10331698
± gives the standard deviation of the averaged measurements.

Columns and labels:
Experiment in all cases: level (log10 ratio to DMSO vehicle control); higher = higher biomarker level / cell amount than vehicle control
Conditions in all cases: in DMSO
[1] = compound: O=S(=O)(O)C(F)(F)C(F)(F)C(F)(F)C(F)(F)F [Perfluorobutanesulfonic acid]
Method: (§1)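 BioMAP Diversity Plus panel of 12 human primary cell co-culture systems (3C, 4H, LPS, SAg, BT, BF4T, BE3C, CASM3C, HDF3CGF, KF3CT, MyoF, Mphg). Compounds were added 1 h before stimulation and left for 24 h (MyoF 48 h; BT 72 h for soluble read-outs or 6 d for IgG). Biomarkers were read by ELISA, cytotoxicity by SRB, PBMC viability and proliferation by Alamar Blue. Each well value was divided by the mean of 8 DMSO control wells on the same plate and log10 transformed; duplicate blinded samples were tested at 4 concentrations.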

[2] = compound: O=P(O)(O)CCC(F)(F)C(F)(F)C(F)(F)C(F)(F)C(F)(F)C(F)(F)C(F)(F)C(F)(F)F [((Perfluorooctyl)ethyl)phosphonic acid]
Method: as §1

[3] = compound: FC(F)(F)C(F)(F)C(F)(F)C(F)(F)C(F)(F)C(F)(F)C(F)(F)CCI [1-Iodo-1H,1H,2H,2H-perfluorononane]
Method: as §1

[4] = compound: CC(C)(C)C(=O)CC(=O)C(F)(F)C(F)(F)C(F)(F)F [(Heptafluorobutanoyl)pivaloylmethane]
Method: as §1

1-(Perfluorohexyl)octane = compound: CCCCCCCCC(F)(F)C(F)(F)C(F)(F)C(F)(F)C(F)(F)C(F)(F)F [1-(Perfluorohexyl)octane]
Method: as §1

Perfluorooctanamidine = compound: N=C(N)C(F)(F)C(F)(F)C(F)(F)C(F)(F)C(F)(F)C(F)(F)C(F)(F)F [Perfluorooctanamidine]
Method: as §1

Perfluorooctanamide = compound: NC(=O)C(F)(F)C(F)(F)C(F)(F)C(F)(F)C(F)(F)C(F)(F)C(F)(F)F [Perfluorooctanamide]
Method: as §1

Test System | level (log10) ([1]; 6700 nM) | level (log10) ([1]; 20000 nM) | level (log10) ([1]; 60000 nM) | level (log10) ([2]; 6700 nM) | level (log10) ([2]; 20000 nM) | level (log10) ([2]; 60000 nM) | level (log10) ([3]; 6700 nM) | level (log10) ([3]; 20000 nM) | level (log10) ([4]; 6700 nM) | level (log10) ([4]; 20000 nM) | level (log10) ([4]; 60000 nM) | level (log10) (1-(Perfluorohexyl)octane; 6700 nM) | level (log10) (1-(Perfluorohexyl)octane; 20000 nM) | level (log10) (Perfluorooctanamidine; 6700 nM) | level (log10) (Perfluorooctanamidine; 20000 nM) | level (log10) (Perfluorooctanamidine; 60000 nM) | level (log10) (Perfluorooctanamide; 6700 nM) | level (log10) (Perfluorooctanamide; 20000 nM) | level (log10) (Perfluorooctanamide; 60000 nM)
3C:CD106/VCAM-1 | -0.0215 ± 0.015 | -0.016 ± 0.025 | -0.006 ± 0.013 | -0.0115 ± 0.016 | -0.0345 ± 0.005 | -0.054 ± 0.0042 | -0.015 ± 0.014 | -0.0115 ± 0.0021 | 0.0015 ± 0.00071 | -0.0045 ± 0.026 | 0.019 ± 0.018 | -0.009 ± 0.0057 | 0.0045 ± 0.0092 | -0.017 ± 0.028 | -0.037 ± 0.031 | -0.088 | -0.023 ± 0.0028 | -0.005 ± 0.0099 | -0.004 ± 0.0057
3C:CD141/Thrombomodulin | -0.0185 ± 0.049 | -0.019 ± 0.0085 | -0.054 ± 0.0085 | -0.0115 ± 0.00071 | -0.0115 ± 0.0078 | 0.013 ± 0.016 | -0.028 ± 0.0014 | -0.01 ± 0.041 | -0.0095 ± 0.015 | 0.024 ± 0.011 | 0.187 ± 0.014 | 0.0125 ± 0.015 | -0.0105 ± 0.018 | -0.015 ± 0.031 | -0.021 ± 0.024 | -0.013 | -0.006 ± 0.02 | -0.0115 ± 0.022 | -0.0185 ± 0.039
3C:CD142/Tissue Factor | 0.003 ± 0.0028 | 0.001 ± 0.0071 | -0.005 ± 0.038 | 0.025 ± 0.03 | 0.0455 ± 0.015 | 0.101 ± 0.023 | 0.01 ± 0.0071 | 0.0065 ± 0.0078 | -0.0205 ± 0.015 | -0.0235 ± 0.005 | -0.053 ± 0.014 | -0.0025 ± 0.0078 | 0.0215 ± 0.023 | -0.02 ± 0.018 | -0.0105 ± 0.012 | -0.014 | 0.029 ± 0.033 | 0.009 ± 0.013 | 0.0245 ± 0.06
BE3C:Keratin 8/18 | 0.003 ± 0.0014 | -0.0035 ± 0.00071 | -0.0165 ± 0.0078 | -0.015 ± 0.011 | -0.012 ± 0.0028 | -0.006 ± 0.021 | -0.005 ± 0.017 | -0.007 ± 0.0085 | 0.009 ± 0.0014 | 0.009 ± 0.0057 | 0.001 ± 0.025 | 0.011 ± 0.0071 | 0.004 ± 0.054 | -0.0165 ± 0.0021 | -0.014 ± 0.0057 | 0.007 | -0.001 ± 0.0085 | -0.009 ± 0.0028 | -0.0105 ± 0.0078
